Results taken from the Kinase Knowledgebase extract (Sharma et al. 2016).

Tests used:
[1] = molecular target: EGFR (human) (UniProt P00533); details: a431
[2] = molecular target: EGFR (human) (UniProt P00533); details: a549
[3] = molecular target: EGFR (human) (UniProt P00533); details: mcf7

EGFR (human), sequence (P00533 whole entry, looked up): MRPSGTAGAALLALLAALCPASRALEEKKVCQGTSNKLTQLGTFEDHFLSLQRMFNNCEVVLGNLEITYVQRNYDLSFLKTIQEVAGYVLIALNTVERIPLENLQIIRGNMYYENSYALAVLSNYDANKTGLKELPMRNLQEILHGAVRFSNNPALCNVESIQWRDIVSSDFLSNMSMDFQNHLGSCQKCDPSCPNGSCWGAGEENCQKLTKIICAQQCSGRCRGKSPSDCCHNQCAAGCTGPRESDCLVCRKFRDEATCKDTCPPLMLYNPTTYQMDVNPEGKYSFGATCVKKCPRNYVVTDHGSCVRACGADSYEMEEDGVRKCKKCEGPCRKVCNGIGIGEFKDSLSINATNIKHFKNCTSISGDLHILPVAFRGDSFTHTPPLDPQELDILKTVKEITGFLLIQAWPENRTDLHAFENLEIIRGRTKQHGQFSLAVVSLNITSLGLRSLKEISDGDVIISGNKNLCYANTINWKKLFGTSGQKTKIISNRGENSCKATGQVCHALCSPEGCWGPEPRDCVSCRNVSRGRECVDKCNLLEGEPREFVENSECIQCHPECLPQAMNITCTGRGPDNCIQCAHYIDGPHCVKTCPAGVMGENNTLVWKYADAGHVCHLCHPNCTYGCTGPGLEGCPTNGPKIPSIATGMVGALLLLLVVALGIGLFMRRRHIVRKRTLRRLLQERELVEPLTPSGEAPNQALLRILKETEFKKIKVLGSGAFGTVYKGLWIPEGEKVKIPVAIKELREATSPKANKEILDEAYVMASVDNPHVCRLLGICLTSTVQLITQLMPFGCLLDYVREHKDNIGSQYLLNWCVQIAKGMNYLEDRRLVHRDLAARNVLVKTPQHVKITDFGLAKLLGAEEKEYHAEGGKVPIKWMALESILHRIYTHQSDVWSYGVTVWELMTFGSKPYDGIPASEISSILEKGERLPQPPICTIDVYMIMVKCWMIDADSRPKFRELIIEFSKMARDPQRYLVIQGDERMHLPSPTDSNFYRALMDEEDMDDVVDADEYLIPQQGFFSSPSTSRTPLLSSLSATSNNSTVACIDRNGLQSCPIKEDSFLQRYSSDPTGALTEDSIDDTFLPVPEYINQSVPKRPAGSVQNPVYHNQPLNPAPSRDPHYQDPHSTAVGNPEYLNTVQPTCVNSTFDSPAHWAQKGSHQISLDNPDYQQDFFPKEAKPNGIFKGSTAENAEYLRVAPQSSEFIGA

Q: With O=C(Nc1ccc2ncnc(Nc3cccc(Br)c3)c2c1)C1COc2ccccc2O1 (centres undefined) as the compound, how does the IC50 [1] read?
A: The IC50 was 65.3 µM.

Q: What about the IC50 [2] of the same compound?
A: Its IC50 is 112 µM.

Q: What about the IC50 [3] of the same compound?
A: Its IC50 is 152 µM.

Q: Which results are given for Clc1cccc(Nc2ncnc3ccc(NCc4ccc5c(c4)OCCCO5)cc23)c1?
A: IC50 [1]: 3.76 µM; IC50 [2]: 45.1 µM; IC50 [3]: 6.22 µM

Q: Which IC50 [1] does the source give for Clc1cccc(Nc2ncnc3ccc(NCc4ccc5c(c4)OCCCCO5)cc23)c1 here?
A: Its IC50 is 19.9 µM.

Q: And the IC50 [2]?
A: Its IC50 is 67 µM.

Q: What about the IC50 [3] of the same compound?
A: Its IC50 is 31.9 µM.

Q: Which results are given for Brc1cccc(Nc2ncnc3ccc(NCc4ccc5c(c4)OCCCCO5)cc23)c1?
A: IC50 [1]: 22.4 µM; IC50 [2]: > 149 µM; IC50 [3]: 47.8 µM

Q: For O=C(Nc1ccc2ncnc(Nc3cccc(Cl)c3)c2c1)C1COc2ccccc2O1 (centres undefined), which IC50 [1] is on record?
A: Its IC50 is 29.7 µM.

Q: And the IC50 [2]?
A: The IC50 was 91.6 µM.

Q: What about the IC50 [3] of the same compound?
A: Its IC50 is 78 µM.

Q: Which results are given for Brc1cccc(Nc2ncnc3ccc(NCc4ccc5c(c4)OCCCO5)cc23)c1?
A: IC50 [1]: 4.03 µM; IC50 [2]: 22.6 µM; IC50 [3]: 7.31 µM

Q: With Fc1cc(Br)ccc1Nc1ncnc2cc3c(cc12)OCCO3 as the compound, how does the IC50 [1] read?
A: Its IC50 is 6.28 µM.

Q: What does the source list for Brc1cccc(Nc2ncnc3ccc(NCc4ccc5c(c4)OCCO5)cc23)c1?
A: IC50 [1]: 17.1 µM; IC50 [2]: 79.5 µM; IC50 [3]: 14.6 µM

Q: Which IC50 [1] does the source give for O=C(Nc1ccc2ncnc(Nc3cccc(Br)c3)c2c1)c1cccc2c1OCCO2 here?
A: Its IC50 is 31.7 µM.

Q: And the IC50 [2]?
A: The IC50 was 131 µM.

Q: What about the IC50 [3] of the same compound?
A: The IC50 was 92.8 µM.

Q: Cc1cccc(Nc2ncnc3cc4c(cc23)OCCO4)c1 was tested. Which IC50 [1] did it give?
A: Its IC50 is 0.67 µM.

Q: With O=C(Nc1ccc2ncnc(Nc3cccc(Cl)c3)c2c1)c1cccc2c1OCCO2 as the compound, how does the IC50 [1] read?
A: Its IC50 is 71.1 µM.

Q: What about the IC50 [2] of the same compound?
A: The IC50 was over 153 µM.

Q: And the IC50 [3]?
A: The IC50 was 153 µM.

Q: With Brc1cccc(Nc2ncnc3ccc(NCc4ccc5c(c4)OCO5)cc23)c1 as the compound, how does the IC50 [1] read?
A: The IC50 was 10.2 µM.

Q: What about the IC50 [2] of the same compound?
A: Its IC50 is 103 µM.

Q: What about the IC50 [3] of the same compound?
A: The IC50 was 21.6 µM.

Q: Which IC50 [1] does the source give for FC(F)(F)c1cccc(Nc2ncnc3cc4c(cc23)OCCO4)c1 here?
A: The IC50 was 0.77 µM.

Q: Brc1cccc(Nc2ncnc3cc4c(cc23)OCCO4)c1 was tested. Which IC50 [1] did it give?
A: The IC50 was 0.75 µM.
